Results as given in PubChem BioAssay (NCI).
“And” between values parts separate entries of the source, which are not always exact repeats. Equal entries are not always repeated.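 These data come from cells grown in 96-well plates and exposed to compound for 48 hours at five concentrations. Here, GI50 denotes the concentration required for 50% inhibition of growth. TGI: total growth inhibition.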

Columns and labels:
Assay in all cases: NCI anticancer screen, dose series, 48 h
HCT-15 colon = system: HCT-15 colon
LOX IMVI melanoma = system: LOX IMVI melanoma
SK-OV-3 ovarian = system: SK-OV-3 ovarian
SN12C renal = system: SN12C renal
T-47D breast = system: T-47D breast
EKVX NSCLC = system: EKVX NSCLC
MALME-3M melanoma = system: MALME-3M melanoma
OVCAR-4 ovarian = system: OVCAR-4 ovarian

| SMILES | TGI (HCT-15 colon) [µM] | TGI (LOX IMVI melanoma) [µM] | TGI (SK-OV-3 ovarian) [µM] | TGI (SN12C renal) [µM] | TGI (T-47D breast) [µM] | TGI (EKVX NSCLC) [µM] | TGI (MALME-3M melanoma) [µM] | TGI (OVCAR-4 ovarian) [µM] | GI50 (EKVX NSCLC) | GI50 (HCT-15 colon) [µM] | GI50 (LOX IMVI melanoma) [µM] | GI50 (MALME-3M melanoma) [µM] | GI50 (OVCAR-4 ovarian) [µM] | GI50 (SK-OV-3 ovarian) [µM] |
| --- | --- | --- | --- | --- | --- | --- | --- | --- | --- | --- | --- | --- | --- | --- |
| C[C@H]1C[C@H]2[C@@H]3C(C)(C)O[C@]4(O)C(=O)[C@]5(O)[C@@H](C)CC[C@H]1[C@]25C(=O)[C@]34C | > 100 | > 100 | > 100 | > 100 | 70.9 | – | – | – | – | – | – | – | – | – |
| c1ccc2c(c1)CCc1c-2n(CCN2CCOCC2)c2ccccc12 | > 100 | > 100 | 82.9 | > 100 | > 100 | > 100 | 32.2 | > 100 | – | – | – | – | – | – |
| CC(=O)Oc1c2oc3ccc(Cl)cc3c(=O)c2c(O)c2ccsc12 | > 100 | > 100 | > 100 | > 100 | 86.7 | > 100 | > 100 | > 100 | – | – | – | – | – | – |
| O=c1[nH]nc(-c2ccccc2)n1/N=C/c1cccnc1 | > 100 | > 100 | – | > 100 | > 100 | > 100 | > 100 | – | – | – | – | – | – | – |
| COc1c(O)cc(O)c2c(=O)cc(-c3ccccc3)oc12 | > 100 | 68.8 | > 100 | > 100 | – | > 100 | > 100 | > 100 | – | – | – | – | – | – |
| OC(CCNCc1ccccc1)c1ccc2ccccc2c1 (stereo not drawn) | 38.8 | 27.2 | – | 72.2 | 49.9 | > 100 | 38.7 | 72.9 | – | – | – | – | – | – |
| CCOC(=O)c1c(N2CCCC2)ncn(Cc2ccccc2)c1=S | > 100 | > 100 | > 100 | > 100 | > 100 | > 100 | > 100 | > 100 | – | – | – | – | – | – |
| O=c1cc(N2CCN(c3cc(=O)n4ccccc4n3)CC2)oc2ccccc12 | > 100 | > 100 | > 100 | > 100 | > 100 | > 31.6 | > 100 | > 100 | – | – | – | – | – | – |
| Cc1c2c(n(CCc3ccc(Cl)cc3)c1C)NC(c1ccccc1)C(C#N)S2(=O)=O (stereo not drawn) | > 100 | > 75 | > 100 | > 100 | > 100 | > 100 | > 80.2 | > 100 | – | – | – | – | – | – |
| O=c1oc2ccccc2cc1-c1cn2cc(Cl)ccc2n1 | 20.7 | 18.7 | 5.96 | 22.4 | > 54.9 | > 100 | 4.77 | 12.8 | – | – | – | – | – | – |
| COC(=O)c1c(OC(C)=O)ccc2c1c1c(n2C)C(=O)c2ccccc2C1=O | > 100 | – | 46.2 | > 100 | 36.9 | 92.7 | 55.3 | > 100 | – | – | – | – | – | – |
| COC(=O)C(CSSC[C@H](N/C(C)=C/C(C)=O)C(=O)OC)N/C(C)=C/C(C)=O (stereo partly drawn) | – | 39.7 | > 100 | > 100 | 58 | 41.4 | 68.6 | > 100 | – | – | – | – | – | – |
| Cc1c(NC(=O)CSC(=S)N2CCN(Cc3ccccc3)CC2)c(=O)n(-c2ccccc2)n1C | > 100 | > 100 | > 100 | > 100 | > 100 | > 100 | > 100 | > 100 | – | – | – | – | – | – |
| CCOP(=O)(OCC)C1CC(n2cc(C)c(=O)[nH]c2=O)OC1CO (stereo not drawn) | > 100 | > 100 | – | > 100 | > 100 | > 100 | > 100 | > 100 | 44.1 µM and > 100 µM | – | – | – | – | – |
| CCOc1cc(C2CC(c3ccc(NS(=O)(=O)c4cc([N+](=O)[O-])ccc4C)cc3)=NN2c2ccc([N+](=O)[O-])cc2[N+](=O)[O-])ccc1O (stereo not drawn) | > 100 | 44.1 | 10.4 | 9.97 | 60.2 | 22 | 23.2 | 11 | – | – | – | – | – | – |
| CC1(C)CC(C)(C)C1=NNC(N)=O | > 100 | > 100 | > 100 | > 100 | > 100 | > 100 | > 100 | > 100 | – | – | – | – | – | – |
| COc1ccc(C(=O)/C=C/c2c(Cl)c3c(c(OC)c2Cl)OCC(=O)N3)cc1 | 6.14 | 2.88 | 27.1 | – | – | – | 4.99 | 8.04 | – | 2.01 | 1.36 | 2.28 | 2.56 | 3.59 |
| COc1ccc2c(c1)c(CC(=O)O)c(C)n2C(=O)c1ccc(Cl)cc1 | > 100 | > 100 | – | > 100 | > 100 | > 100 | > 100 | > 100 | – | – | – | – | – | – |
| CC1CC/C(=C\c2ccc(Cl)cc2)C2OC(N)=C(C#N)C(c3ccc(Cl)cc3)=C12 (stereo not drawn) | 23.1 | 26.6 | 40 | 26.5 | 17.8 | 22.7 | 28.7 | – | – | – | – | – | – | – |
| COc1ccc2nc3cc([N+](=O)[O-])ccc3c(Nc3ccc(S(=O)(=O)NC(C)=O)cc3)c2c1 | > 100 | > 100 | > 100 | > 100 | > 100 | > 100 | > 100 | > 100 | – | – | – | – | – | – |
| O=C(Nc1nc2ccccc2s1)c1cc([N+](=O)[O-])ccc1Cl | > 41.4 | 13.7 | > 100 | > 100 | > 100 | > 100 | > 100 | > 100 | – | – | – | – | – | – |
| Nc1ccccc1CC(O)C(=O)O (stereo not drawn) | > 100 | > 100 | > 100 | > 100 | > 100 | > 100 | > 100 | – | – | – | – | – | – | – |
| CC1=NN(c2nc(N)nc(/C(C#N)=C/c3cccn3-c3cc(Cl)cc(Cl)c3)n2)C(C)(C)C1 | > 100 | > 100 | > 100 | > 100 | > 100 | > 100 | > 100 | > 100 | – | – | – | – | – | – |
| N#Cc1c(-c2ccc(Cl)cc2)c2c(n(C3OC(CO)C(O)C(O)C3O)c1=S)CCC2 (stereo not drawn) | > 100 | 34.3 | > 100 | > 100 | 45.8 | – | 51.8 | > 100 | – | – | – | – | – | – |
| O=C(Cn1c(C(=O)/C=C/c2cccs2)nc2ccccc21)c1ccc(Cl)cc1 | 83 | 27.3 | > 100 | 50.1 | > 100 | – | 54.7 | 76.9 | – | – | – | – | – | – |
